Legend:
Assay type in all cases: in vivo
[1] = test system: Venturia inaequalis; experiment: Venturia test (apple)/protective; conditions: 240 h, protective, application rate 100 g/ha, evaluation 10 days after inoculation, read-out: Efficacy in %
Description: To produce a suitable preparation of active compound, 1 part by weight of active compound is mixed with the stated amounts of solvents and emulsifier, and the concentrate is diluted with water to the desired concentration. To test for protective activity, young plants are sprayed with the preparation of active compound at the stated application rate. After the spray coating has dried on, the plants are inoculated with an aqueous conidia suspension of the apple pathogen Venturia inaequalis and then remain in an incubation cabin at about 20° C. and 100% relative atmospheric humidity for 1 day. The plants are then placed in a greenhouse at about 21° C. and a relative atmospheric humidity of about 90%. Evaluation is carried out 10 days after the inoculation. 0% means an efficacy which corresponds to that of the control, whereas an efficacy of 100% means that no infection is observed.

[2] = test system: Botrytis cinerea; experiment: Botrytis test (bean)/protective; conditions: 48 h, protective, evaluation 2 days after inoculation, read-out: Efficacy in %; for pest or weed control at 500 g/ha: application rate 500 g/ha; for pest or weed control at 100 g/ha: application rate 100 g/ha
Description: To produce a suitable preparation of active compound, 1 part by weight of active compound is mixed with the stated amounts of solvents and emulsifier, and the concentrate is diluted with water to the desired concentration. To test for protective activity, young plants are sprayed with the preparation of active compound at the stated application rate. After the spray coating has dried on, 2 small pieces of agar colonized with Botrytis cinerea are placed onto each leaf. The inoculated plants are placed in a darkened chamber at about 20° C. and 100% relative atmospheric humidity. 2 days after the inoculation, the size of the infected areas on the leaves is evaluated. 0% means an efficacy which corresponds to that of the control, whereas an efficacy of 100% means that no infection is observed.

[3] = test system: Pyrenophora teres; experiment: Pyrenophora teres test (barley)/protective; conditions: 192 h, protective, application rate 500 g/ha, evaluation 8 days after inoculation, read-out: Efficacy in %
Description: (§1) To produce a suitable preparation of active compound, 1 part by weight of active compound is mixed with the stated amounts of solvent and emulsifier, and the concentrate is diluted with water to the desired concentration. To test for protective activity, young plants are sprayed with the preparation of active compound at the stated application rate. After the spray coating has dried on, the plants are sprayed with a conidia suspension of Pyrenophora teres. The plants remain in an incubation cabin at 20° C. and 100% relative atmospheric humidity for 48 hours. The plants are then placed in a greenhouse at a temperature of about 20° C. and a relative atmospheric humidity of about 80%. Evaluation is carried out 8 days after the inoculation. 0% means an efficacy which corresponds to that of the control, whereas an efficacy of 100% means that no infection is observed.

[4] = test system: Puccinia recondita; experiment: Puccinia test (wheat)/protective; conditions: 240 h, protective, application rate 500 g/ha, evaluation 10 days after inoculation, read-out: Efficacy in %
Description: as §1, with “of Puccinia recondita.” for “of Pyrenophora teres.”, “of 80% to promote the development of rust pustules.” for “of about 80%.”, “out 10” for “out 8”

[5] = test system: Alternaria solani; experiment: Alternaria test (tomato)/protective; conditions: protective, application rate 750 g/ha, evaluation 7 days after inoculation
Description: To produce a suitable preparation of active compound, 1 part by weight of active compound is mixed with the stated amounts of solvent and emulsifier, and the concentrate is diluted with water to the desired concentration. To test for protective activity, young tomato plants are sprayed with the preparation of active compound at the stated application rate. 1 day after the treatment, the plants are inoculated with a spore suspension of Alternaria solani and are then allowed to stand at 100% relative atmospheric humidity and 20° C. for 24 h. The plants are then allowed to stand at 96% relative atmospheric humidity and a temperature of 20° C. The evaluation is carried out 7 days after the inoculation. 0% means an efficacy which corresponds to that of the control, whereas an efficacy of 100% means that no infection is observed.

Cn1cc(C(=O)Nc2ccccc2-c2ccc(Cl)cc2)c(I)n1 [drawing 80]
pest or weed control at 100 g/ha [1]: 100%

Cn1cc(C(=O)Nc2ccccc2-c2ccc(I)cc2)c(I)n1 [drawing 81]
pest or weed control at 100 g/ha [1]: 99%

CC(C)CCc1ccccc1NC(=O)c1cn(C)nc1I [drawing 82]
pest or weed control at 100 g/ha [1]: 98%

CC1CC(C)(C)c2cccc(NC(=O)c3cn(C)nc3I)c21 (stereo not drawn) [drawing 83]
pest or weed control at 100 g/ha [1]: 100%

CC(C)CC(C)c1cc(F)ccc1NC(=O)c1cn(C)nc1I (stereo not drawn) [drawing 84]
pest or weed control at 100 g/ha [1]: 100%

CC(CC(C)(C)C)c1ccccc1NC(=O)c1cn(C)nc1I (stereo not drawn) [drawing 85]
pest or weed control at 500 g/ha [2]: 100%

CC(C)CC(C)c1ccccc1NC(=O)c1cn(C)nc1I (stereo not drawn) [drawing 86]
pest or weed control at 500 g/ha [2]: 100%

Cn1cc(C(=O)Nc2ccccc2-c2ccc(Cl)c(Cl)c2)c(I)n1 [drawing 87]
pest or weed control at 500 g/ha [2]: 100%

Cn1cc(C(=O)Nc2ccc(F)cc2-c2ccc(Cl)c(Cl)c2)c(I)n1 [drawing 88]
pest or weed control at 100 g/ha [2]: 100%

Cn1cc(C(=O)Nc2ccccc2-c2ccc(F)c(Cl)c2)c(I)n1 [drawing 89]
pest or weed control at 500 g/ha [2]: 100%

Cn1cc(C(=O)Nc2ccccc2-c2ccc(Br)cc2)c(I)n1 [drawing 90]
pest or weed control at 500 g/ha [2]: 100%

Cn1cc(C(=O)Nc2ccccc2-c2ccc(Cl)c(F)c2)c(I)n1 [drawing 91]
pest or weed control at 500 g/ha [2]: 100%

CCCO/N=C/c1ccc(-c2ccccc2NC(=O)c2cn(C)nc2I)cc1F [drawing 92]
pest or weed control at 500 g/ha [2]: 100%

Cc1ccc(-c2ccccc2NC(=O)c2cn(C)nc2I)cc1F [drawing 93]
pest or weed control at 500 g/ha [2]: 100%

Cn1cc(C(=O)Nc2ccccc2-c2ccc(C(F)(F)F)cc2)c(I)n1 [drawing 94]
pest or weed control at 500 g/ha [2]: 94%

Cn1cc(C(=O)Nc2ccccc2-c2ccc(C(F)(F)F)c(F)c2)c(I)n1 [drawing 95]
pest or weed control at 500 g/ha [2]: 100%

Cn1cc(C(=O)Nc2ccccc2-c2ccc(Cl)cc2)c(I)n1 [drawing 96]
pest or weed control at 100 g/ha [2]: 100%

Cn1cc(C(=O)Nc2ccccc2-c2ccc(I)cc2)c(I)n1 [drawing 97]
pest or weed control at 100 g/ha [2]: 100%

CC(C)CCc1ccccc1NC(=O)c1cn(C)nc1I [drawing 98]
pest or weed control at 100 g/ha [2]: 98%

CC1CC(C)(C)c2cccc(NC(=O)c3cn(C)nc3I)c21 (stereo not drawn) [drawing 99]
pest or weed control at 100 g/ha [2]: 100%

CC(C)CC(C)c1cc(F)ccc1NC(=O)c1cn(C)nc1I (stereo not drawn) [drawing 100]
pest or weed control at 100 g/ha [2]: 100%

CC(CC(C)(C)C)c1ccccc1NC(=O)c1cn(C)nc1I (stereo not drawn) [drawing 101]
pest or weed control at 500 g/ha [3]: 93%

CC(C)CC(C)c1ccccc1NC(=O)c1cn(C)nc1I (stereo not drawn) [drawing 102]
pest or weed control at 500 g/ha [3]: 100%

Cn1cc(C(=O)Nc2ccccc2-c2ccc(Cl)c(F)c2)c(I)n1 [drawing 103]
pest or weed control at 500 g/ha [3]: 100%

Cn1cc(C(=O)Nc2ccccc2-c2ccc(I)cc2)c(I)n1 [drawing 104]
pest or weed control at 500 g/ha [3]: 100%

Cn1cc(C(=O)Nc2ccccc2-c2ccc(Cl)cc2)c(I)n1 [drawing 105]
pest or weed control at 500 g/ha [3]: 100%

Cn1cc(C(=O)Nc2ccccc2-c2ccc(F)c(Cl)c2)c(I)n1 [drawing 106]
pest or weed control at 500 g/ha [3]: 100%

Cn1cc(C(=O)Nc2ccccc2-c2ccc(Br)cc2)c(I)n1 [drawing 107]
pest or weed control at 500 g/ha [3]: 100%

Cn1cc(C(=O)Nc2ccccc2-c2ccc(C(F)(F)F)c(F)c2)c(I)n1 [drawing 108]
pest or weed control at 500 g/ha [3]: 100%

CC(=O)N(C(=O)c1cn(C)nc1I)c1ccccc1C(C)CC(C)C (stereo not drawn) [drawing 109]
pest or weed control at 500 g/ha [3]: 100%

CC(C)CC(C)c1cc(F)ccc1NC(=O)c1cn(C)nc1I (stereo not drawn) [drawing 110]
pest or weed control at 500 g/ha [3]: 100%

CC(CC(C)(C)C)c1ccccc1NC(=O)c1cn(C)nc1I (stereo not drawn) [drawing 111]
pest or weed control at 500 g/ha [4]: 100%

CC(C)CC(C)c1ccccc1NC(=O)c1cn(C)nc1I (stereo not drawn) [drawing 112]
pest or weed control at 500 g/ha [4]: 100%

Cn1cc(C(=O)Nc2ccccc2-c2ccc(Cl)c(F)c2)c(I)n1 [drawing 113]
pest or weed control at 500 g/ha [4]: 100%

Cn1cc(C(=O)Nc2ccccc2-c2ccc(I)cc2)c(I)n1 [drawing 114]
pest or weed control at 500 g/ha [4]: 100%

Cn1cc(C(=O)Nc2ccccc2-c2ccc(Cl)c(Cl)c2)c(I)n1 [drawing 115]
pest or weed control at 500 g/ha [4]: 100%

Cn1cc(C(=O)Nc2ccccc2-c2ccc(Cl)cc2)c(I)n1 [drawing 116]
pest or weed control at 500 g/ha [4]: 100%

Cn1cc(C(=O)Nc2ccccc2-c2ccc(F)c(Cl)c2)c(I)n1 [drawing 117]
pest or weed control at 500 g/ha [4]: 100%

Cn1cc(C(=O)Nc2ccccc2-c2ccc(Br)cc2)c(I)n1 [drawing 118]
pest or weed control at 500 g/ha [4]: 100%

Cn1cc(C(=O)Nc2ccccc2-c2ccc(C(F)(F)F)c(F)c2)c(I)n1 [drawing 119]
pest or weed control at 500 g/ha [4]: 100%

CC(=O)N(C(=O)c1cn(C)nc1I)c1ccccc1C(C)CC(C)C (stereo not drawn) [drawing 120]
pest or weed control at 500 g/ha [4]: 100%

CC(C)CC(C)c1cc(F)ccc1NC(=O)c1cn(C)nc1I (stereo not drawn) [drawing 121]
pest or weed control at 500 g/ha [4]: 100%

CC(C)CCc1ccccc1NC(=O)c1cn(C)nc1I [drawing 122]
pest or weed control at 500 g/ha [4]: 100%

CC1CC(C)(C)c2cccc(NC(=O)c3cn(C)nc3I)c21 (stereo not drawn) [drawing 123]
pest or weed control at 500 g/ha [4]: 100%

C=C(CC(C)(C)C)c1ccccc1NC(=O)c1cn(C)nc1I [drawing 124]
pest or weed control at 500 g/ha [4]: 100%

Cn1cc(C(=O)Nc2ccccc2-c2ccc(I)cc2)c(I)n1 [drawing 125]
Efficacy in % [5]: 100%

Cn1cc(C(=O)Nc2ccc(F)cc2-c2ccc(Cl)c(Cl)c2)c(I)n1 [drawing 126]
Efficacy in % [5]: 100%

Cn1cc(C(=O)Nc2ccccc2-c2ccc(F)c(Cl)c2)c(I)n1 [drawing 127]
Efficacy in % [5]: 100%
